Measurements reported in BindingDB's records for doi:10.1016/j.bmc.2016.11.012 (China Pharmaceutical University, 2017).
pIC50: −log10 of the molar value.

Assay: Inhibition of rabbit thrombin-induced platelet aggregation in rabbit platelet-rich plasma preincubated with rabbit liver microsomes for 4 hrs followed by addition to platelet

Row | SMILES | pIC50
1 | CC(C)(C)OC(=O)/N=C(\N)c1ccc(CC2NCCn3c2nc2cc(C4(C(=O)N5CCCC5)CCCC4)ccc23)cc1 (stereo unspecified) | 5.09
2 | Cc1nc(C)c(OC(=O)/N=C(\N)c2ccc(CC3NCCn4c3nc3cc(C5(C(=O)N6CCCC6)CCCC5)ccc34)cc2)nc1C (stereo unspecified) | 5.71
3 | CCOC(=O)/N=C(\N)c1ccc(CC2NCCn3c2nc2cc(C4(C(=O)N5CCCC5)CCCC4)ccc23)cc1 (stereo unspecified) | 4.05
4 | CC(C)COC(=O)/N=C(\N)c1ccc(CC2NCCn3c2nc2cc(C4(C(=O)N5CCCC5)CCCC4)ccc23)cc1 (stereo unspecified) | 3.79
5 | CCCCCCOC(=O)/N=C(\N)c1ccc(CC2NCCn3c2nc2cc(C4(C(=O)N5CCCC5)CCCC4)ccc23)cc1 (stereo unspecified) | 4.60
6 | CCCCCCOC(=O)/N=C(\N)c1ccc(CC2c3nc4cc(C5(C(=O)N6CCCC6)CCCC5)ccc4n3CCN2C(=O)OCCCCCC)cc1 (stereo unspecified) | 4.04
7 | CCCCCCOC(=O)N=C(N)c1ccc(NCc2nc3cc(C(=O)N(CCC(=O)OCC)c4ccccn4)ccc3n2C)cc1 [BIBR-1048] | 6.26

Further lines, results first:

Row | pIC50 | SMILES
8 | < 3.00 | CC(C)(C)OC(=O)/N=C(\N)c1ccc(CC2c3nc4cc(C5(C(=O)N6CCCC6)CCCC5)ccc4n3CCN2C(=O)OC(C)(C)C)cc1 (stereo unspecified)
9 | < 3.00 | N/C(=N\C(=O)OCc1ccccc1)c1ccc(CC2c3nc4cc(C5(C(=O)N6CCCC6)CCCC5)ccc4n3CCN2C(=O)OCc2ccccc2)cc1 (stereo unspecified)
10 | 4.04 | N/C(=N\C(=O)OCc1ccccc1)c1ccc(CC2NCCn3c2nc2cc(C4(C(=O)N5CCCC5)CCCC4)ccc23)cc1 (stereo unspecified)
11 | < 3.00 | CC(C)COC(=O)/N=C(\N)c1ccc(CC2c3nc4cc(C5(C(=O)N6CCCC6)CCCC5)ccc4n3CCN2C(=O)OCC(C)C)cc1 (stereo unspecified)
